Earlier results on 3 compounds are cited in patent US10993442B2, “Ultra-high loading glyphosate concentrate” (STEPAN COMPANY, priority 2008, dated 2021).

SMILES strings stand for the structures. Counter-ions that a name gives are not always drawn.

For the data set the following is noted: for Solubility in water, glyphosate acid equivalent: as acid equivalent; for Solubility in water: as salt.

Regarding `O=C(O)CNCP(=O)(O)O` [glyphosate potassium salt], the “Solubility in water, glyphosate acid equivalent” value is given as “about 50 % by weight glyphosate acid equivalent (a.e.)” and the Solubility in water result is listed as “about 61 % by weight”. As for `O=C(O)CNCP(=O)(O)O` [glyphosate, N-phosphonomethylglycine], the Water solubility result (free acid form) is on record as “low”. In the case of `CC(C)N.O=C(O)CNCP(=O)(O)O` [isopropylamine salt of glyphosate], the “Solubility in water, glyphosate acid equivalent” value is given as “about 47 % by weight glyphosate acid equivalent (a.e.)” and the Solubility in water entry is listed as “about 63 % by weight”.
